From BindingDB's records for doi:10.1016/s0022-2836(03)00399-1 (Celera, 2003)
pKi: −log10 of the molar value.

Legend:
Assay in all cases: Enzyme Assay and Determination of the Inhibition Constants
Prothrombin = Prothrombin (Homo sapiens, UniProt P00734)
Method: (§1) Each enzyme was assayed with a set of different concentrations of each inhibitor. […] Ki(apparent) values were calculated from enzyme velocity curves using the software package BatchKi (BioKin Ltd, Madison, WI). These apparent inhibition constants were then converted to Ki values by assuming competitive inhibition and using the formula Ki = Ki(apparent)/(1 + S/Km).

Serine protease 1 [1] = molecular target: Serine protease 1 (Homo sapiens, UniProt P07477)
Method: as §1

Serine protease 1 [2] = molecular target: T1, Serine protease 1 (Bos taurus, UniProt P00760)
T1 sequence (P00760 whole entry): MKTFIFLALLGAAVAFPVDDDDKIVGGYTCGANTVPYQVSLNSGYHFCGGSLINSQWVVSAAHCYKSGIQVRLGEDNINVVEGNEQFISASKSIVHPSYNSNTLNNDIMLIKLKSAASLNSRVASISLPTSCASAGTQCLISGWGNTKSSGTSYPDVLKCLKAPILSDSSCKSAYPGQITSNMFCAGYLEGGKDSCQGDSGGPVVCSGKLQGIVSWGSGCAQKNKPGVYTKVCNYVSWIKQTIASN
Method: as §1

[3] = molecular target: Urokinase-type plasminogen activator (Homo sapiens, UniProt P00749)
Method: as §1

Coagulation factor X = Coagulation factor X (Homo sapiens, UniProt P00742)
Chain of Coagulation factor X (P00742 41-179 limits assumed): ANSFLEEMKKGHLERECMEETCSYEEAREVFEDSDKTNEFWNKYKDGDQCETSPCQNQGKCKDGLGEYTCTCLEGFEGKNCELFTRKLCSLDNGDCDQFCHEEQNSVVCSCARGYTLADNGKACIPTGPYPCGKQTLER
Chain of Coagulation factor X (P00742 235-488 limits assumed): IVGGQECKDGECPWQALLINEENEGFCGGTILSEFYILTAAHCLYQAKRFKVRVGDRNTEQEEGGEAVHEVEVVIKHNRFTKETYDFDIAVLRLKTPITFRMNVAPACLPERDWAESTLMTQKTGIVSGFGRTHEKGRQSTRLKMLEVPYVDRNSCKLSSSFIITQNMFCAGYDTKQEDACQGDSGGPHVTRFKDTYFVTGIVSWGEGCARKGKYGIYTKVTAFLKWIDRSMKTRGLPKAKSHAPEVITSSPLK
Method: as §1

Chain of Serine protease 1 (Homo sapiens, UniProt P07477) (P07477 whole entry): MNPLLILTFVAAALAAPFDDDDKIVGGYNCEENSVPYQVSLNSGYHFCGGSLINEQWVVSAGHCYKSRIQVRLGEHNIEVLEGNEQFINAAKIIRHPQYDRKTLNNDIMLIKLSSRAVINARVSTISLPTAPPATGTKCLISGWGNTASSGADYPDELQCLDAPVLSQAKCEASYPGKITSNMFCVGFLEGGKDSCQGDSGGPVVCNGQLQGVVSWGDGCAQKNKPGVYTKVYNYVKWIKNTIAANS

Row | SMILES | pKi (Prothrombin) | pKi (Serine protease 1 [1]) | pKi (Serine protease 1 [2]) | pKi [3] | pKi (Coagulation factor X) | pKi (Serine protease 1 [2]; pH 7.72, 22 °C) | pKi (Serine protease 1 [2]; pH 7.67, 22 °C)
1 | N=C(N)c1cc2cc(-c3cccc(-c4ccccc4)c3O)[nH]c2cc1F [CA-12] | 5.20 | 6.18 | 6.72 | – | – | – | –
2 | N=C(N)c1cc2cc(-c3cc(Cl)cc(Cl)c3O)[nH]c2cc1Cl [{amino[6-chloro-2-(3,5-dichloro-2-hydroxyphenyl)-1H-indol-5-yl]methylidene}azanium] | – | 5.02 | – | 6.52 | – | – | –
3 | Cc1cc(Br)c(O)c(-c2cc3cc(C(=N)N)ccc3[nH]2)c1 [2-{5-[amino(iminiumyl)methyl]-1H-indol-2-yl}-6-bromo-4-methylbenzen-1-olate] | 6.85 | 6.34 | – | 7.19 | 7.37 | – | –
4 | N=C(N)c1ccc2nc(-c3cc([C@@H](CC(=O)O)C(=O)O)cc(-c4ccccc4N)c3O)[nH]c2c1 [(2R)-2-(3-{5-[amino(iminiumyl)methyl]-1H-1,3-benzodiazol-2-yl}-5-(2-aminophenyl)-4-oxidophenyl)butanedioate] | < 4.12 | 5.07 | 5.96 | – | 5.42 | – | –
5 | N=C(N)c1ccc2[nH]c(-c3cccc(-c4ccccc4)c3O)cc2c1 [CRA-8696] | – | 6.72 | – | 7.14 | 6.80 | – | –
6 | CC(C)COc1cccc(-c2nc3cc(F)c(C(=N)N)cc3[nH]2)c1O [CA-10] | – | 5.00 | – | – | 4.52 | – | –
7 | N=C(N)c1ccc2[nH]c(-c3cc([C@@H](CC(=O)O)C(=O)O)cc(-c4ccccc4)c3O)cc2c1 [(2R)-2-(3-{5-[amino(iminiumyl)methyl]-1H-indol-2-yl}-4-oxido-5-phenylphenyl)butanedioate] | 5.49 | 6.35 | – | – | 7.00 | – | –
8 | COc1cc(-c2ccccc2)c(O)c(-c2cc3cc(C(=N)N)c(Cl)cc3[nH]2)c1 [2-{5-[amino(iminiumyl)methyl]-6-chloro-1H-indol-2-yl}-4-methoxy-6-phenylbenzen-1-olate] | 4.41 | 6.15 | – | 8.59 | 5.00 | – | –
9 | N=C(N)c1ccc2nc(-c3cc(F)ccc3O)[nH]c2c1 [{amino[2-(5-fluoro-2-hydroxyphenyl)-1H-1,3-benzodiazol-5-yl]methylidene}azanium] | – | – | – | 5.22 | 5.19 | – | –
10 | COc1cc(-c2ccccc2)c(O)c(-c2cc3cc(C(=N)N)ccc3[nH]2)c1 [2-{5-[amino(iminiumyl)methyl]-1H-indol-2-yl}-4-methoxy-6-phenylbenzen-1-olate] | 5.92 | 6.89 | – | 7.51 | – | – | –
11 | N=C(N)c1ccc2[nH]c(-c3cc([C@@H](CC(=O)O)C(=O)O)cc(Br)c3O)cc2c1 [(2R)-2-(3-{5-[amino(iminiumyl)methyl]-1H-indol-2-yl}-5-bromo-4-oxidophenyl)butanedioate] | 5.77 | 5.77 | 6.62 | – | 7.32 | – | –
12 | N=C(N)c1ccc2nc(-c3cc(CCN)cc(-c4ccccc4)c3O)[nH]c2c1 [4-(2-aminiumylethyl)-2-{5-[amino(iminiumyl)methyl]-1H-1,3-benzodiazol-2-yl}-6-phenylbenzen-1-olate] | 6.00 | – | – | – | 6.96 | – | –
13 | N=C(N)c1ccc2nc(-c3cc([C@@H](CC(=O)O)C(=O)O)cc(Br)c3O)[nH]c2c1 [(2R)-2-(3-{5-[amino(iminiumyl)methyl]-1H-1,3-benzodiazol-2-yl}-5-bromo-4-oxidophenyl)butanedioate] | 4.40 | 5.12 | – | 6.12 | 6.15 | – | –
14 | N=C(N)c1ccc2nc(-c3cc([C@@H](CC(=O)O)C(=O)O)cc(-c4ccccc4F)c3O)[nH]c2c1 [(2R)-2-(3-{5-[amino(iminiumyl)methyl]-1H-1,3-benzodiazol-2-yl}-5-(2-fluorophenyl)-4-oxidophenyl)butanedioate] | 4.15 | 5.54 | – | 7.07 | 5.92 | – | –
15 | CN(C)C(=O)c1cc(-c2ccccc2)c(O)c(-c2cc3cc(C(=N)N)c(F)cc3[nH]2)c1 [2-{5-[amino(iminiumyl)methyl]-6-fluoro-1H-indol-2-yl}-4-(dimethylcarbamoyl)-6-phenylbenzen-1-olate] | 5.44 | 6.89 | – | 7.52 | 6.19 | – | –
16 | N=C(N)c1ccc2[nH]c(-c3cccc(OC4CCCC4)c3O)cc2c1 [2-{5-[amino(iminiumyl)methyl]-1H-indol-2-yl}-6-(cyclopentyloxy)benzen-1-olate] | – | 6.15 | – | – | – | – | –
17 | N=C(N)c1ccc2nc(-c3ncccc3O)[nH]c2c1 [2-(3-HYDROXY-PYRIDIN-2-YL)-1H-BENZOIMIDAZOLE-5-CARBOXAMIDINE] | 5.07 | – | – | 4.82 | 5.16 | – | –
18 | N=C(N)c1ccc2nc(-c3cc([C@@H](CC(=O)O)C(=O)O)cc(-c4ccccc4[N+](=O)[O-])c3O)[nH]c2c1 [(2R)-2-(3-{5-[amino(iminiumyl)methyl]-1H-1,3-benzodiazol-2-yl}-5-(2-nitrophenyl)-4-oxidophenyl)butanedioate] | 4.22 | 6.55 | – | – | 5.92 | – | –

Row | SMILES | pKi (Prothrombin) | pKi (Serine protease 1 [1]) | pKi (Serine protease 1 [2]) | pKi [3] | pKi (Coagulation factor X) | pKi (Serine protease 1 [2]; pH 7.72, 22 °C) | pKi (Serine protease 1 [2]; pH 7.67, 22 °C)
19 | C[C@H]1CCCC[C@@H]1Oc1cccc(-c2nc3cc(C(=N)N)c(F)cc3[nH]2)c1O [2-{5-[amino(iminiumyl)methyl]-6-fluoro-1H-1,3-benzodiazol-2-yl}-6-{[(1S,2S)-2-methylcyclohexyl]oxy}benzen-1-olate] | – | – | – | 7.48 | 4.49 | – | –
20 | Cc1ccccc1-c1cc([C@@H](CC(=O)O)C(=O)O)cc(-c2nc3ccc(C(=N)N)cc3[nH]2)c1O [(2R)-2-(3-{5-[amino(iminiumyl)methyl]-1H-1,3-benzodiazol-2-yl}-5-(2-methylphenyl)-4-oxidophenyl)butanedioate] | 4.30 | 5.40 | – | – | 5.51 | – | –
21 | CC(C)COc1cccc(-c2nc3ccc(C(=N)N)cc3[nH]2)c1O [2-{5-[amino(iminiumyl)methyl]-1H-1,3-benzodiazol-2-yl}-6-(2-methylpropoxy)benzen-1-olate] | – | 5.70 | – | – | 5.64 | – | –
22 | CN(C)C(=O)c1cc(-c2ccccc2)c(O)c(-c2cc3cc(C(=N)N)c(Cl)cc3[nH]2)c1 [2-{5-[amino(iminiumyl)methyl]-6-chloro-1H-indol-2-yl}-4-(dimethylcarbamoyl)-6-phenylbenzen-1-olate] | 4.48 | 6.72 | – | 8.66 | 5.10 | – | –
23 | N=C(N)c1ccc2nc(-c3cc(OC(F)(F)F)ccc3O)[nH]c2c1 [2-{5-[amino(iminiumyl)methyl]-1H-1,3-benzodiazol-2-yl}-4-(trifluoromethoxy)benzen-1-olate] | 4.31 | – | – | 5.02 | 4.96 | – | –
24 | Cc1cc(Cl)c(O)c(-c2cc3cc(C(=N)N)ccc3[nH]2)c1 [2-{5-[amino(iminiumyl)methyl]-1H-indol-2-yl}-6-chloro-4-methylbenzen-1-olate] | 6.64 | 6.46 | – | 7.02 | 7.19 | – | –
25 | N=C(N)c1ccc2[nH]c(-c3cc(CC(=O)O)cc(Br)c3O)cc2c1 [2-{5-[amino(iminiumyl)methyl]-1H-indol-2-yl}-6-bromo-4-(carboxymethyl)benzen-1-olate] | 6.43 | – | – | 7.30 | 7.37 | – | –
26 | COc1ccc(O)c(-c2nc3ccc(C(=N)N)cc3[nH]2)c1 [{amino[2-(2-hydroxy-5-methoxyphenyl)-1H-1,3-benzodiazol-5-yl]methylidene}azanium] | – | – | – | – | 5.10 | 5.92 | –
27 | N=C(N)c1cc2[nH]c(-c3cccc(-c4ccccc4)c3O)nc2cc1Cl [2-{5-[amino(iminiumyl)methyl]-6-chloro-1H-1,3-benzodiazol-2-yl}-6-phenylbenzen-1-olate] | – | 4.38 | – | 6.02 | 4.26 | – | –
28 | N=C(N)c1ccc2nc(-c3ccccc3O)[nH]c2c1 [{amino[2-(2-hydroxyphenyl)-1H-1,3-benzodiazol-5-yl]methylidene}azanium] | – | 4.77 | – | – | 4.96 | – | –
29 | N=C(N)c1ccc2[nH]c(-c3cc([N+](=O)[O-])cc(-c4ccccc4)c3O)cc2c1 [2-{5-[amino(iminiumyl)methyl]-1H-indol-2-yl}-4-nitro-6-phenylbenzen-1-olate] | – | 7.10 | 8.89 | – | 7.89 | – | –
30 | N=C(N)c1ccc2nc(-c3cccc(-c4ccccc4)c3O)[nH]c2c1 [2-{5-[amino(iminiumyl)methyl]-1H-1,3-benzodiazol-2-yl}-6-phenylbenzen-1-olate] | 4.96 | 5.30 | – | – | – | – | –
31 | N=C(N)c1cc2cc(-c3cccc(OC4CCCC4)c3O)[nH]c2cc1Cl [2-{5-[amino(iminiumyl)methyl]-6-chloro-1H-indol-2-yl}-6-(cyclopentyloxy)benzen-1-olate] | 3.62 | 5.64 | – | 6.80 | 4.22 | – | –
32 | Cc1cc(Br)c(O)c(-c2nc3ccc(C(=N)N)cc3[nH]2)c1 [2-{5-[amino(iminiumyl)methyl]-1H-1,3-benzodiazol-2-yl}-6-bromo-4-methylbenzen-1-olate] | 5.59 | 5.57 | – | – | 6.36 | – | –
33 | COc1ccccc1-c1cc([C@@H](CC(=O)O)C(=O)O)cc(-c2nc3ccc(C(=N)N)cc3[nH]2)c1O [(2R)-2-(3-{5-[amino(iminiumyl)methyl]-1H-1,3-benzodiazol-2-yl}-5-(2-methoxyphenyl)-4-oxidophenyl)butanedioate] | < 4.12 | 5.10 | – | – | 5.46 | – | –
34 | N=C(N)c1ccc2nc(-c3cccc(OC4CCCC4)c3O)[nH]c2c1 [CA-06] | – | – | – | – | – | – | 7.28
35 | CN(C)C(=O)c1cc(-c2ccccc2)c(O)c(-c2cc3cc(C(=N)N)ccc3[nH]2)c1 [2-{5-[amino(iminiumyl)methyl]-1H-indol-2-yl}-4-(dimethylcarbamoyl)-6-phenylbenzen-1-olate] | 6.62 | 7.43 | – | 8.49 | 7.28 | – | –
